Molecules are shown by their SMILES. Activity calls are given as the source filed them.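 How the source made its calls: active means Zta binding inhibitor with IC50 at or below 10 µM; inactive means IC50 above 10 µM.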

Lytic switch protein BZLF1 (Epstein-Barr virus (strain B95-8)), sequence (P03206 whole entry, looked up): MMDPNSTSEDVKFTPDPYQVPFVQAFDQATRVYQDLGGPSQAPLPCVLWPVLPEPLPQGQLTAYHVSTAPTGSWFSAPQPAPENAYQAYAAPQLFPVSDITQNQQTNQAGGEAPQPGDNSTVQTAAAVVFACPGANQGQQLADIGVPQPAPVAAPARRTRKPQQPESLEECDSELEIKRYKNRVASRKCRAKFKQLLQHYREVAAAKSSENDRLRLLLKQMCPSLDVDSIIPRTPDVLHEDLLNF

The assay has as its target Lytic switch protein BZLF1 (Epstein-Barr virus (strain B95-8)) (UniProt P03206). In words: Zta-ZRE interaction blockers, IC50 testing – biochemical, fluorescence polarization, dose response, assay provider, counter-screen for EBNA-1 inhibitor project, late-stage follow-up (AID 493077). As to conditions: purified Zta, Cy5-ZRE DNA. Background: Polarisation of emitted light reports the rotation of a fluorescent probe.
On to `Cc1ccc(C(=O)Nc2nc3cc(F)ccc3s2)cc1C`, for which the IC50 is > 111 µM (inactive). In the case of `CCn1c(C)cc(C(=O)CSc2nnnn2-c2ccccc2)c1C`, the IC50 is > 111 µM (inactive).

Consider `COc1ccc2nc(NC(=O)c3ccc(C)c(C)c3)sc2c1`, for which the IC50 was > 111 µM (inactive). On to `Cc1cccc(-n2nnnc2SCC(=O)c2cc(C)n(CC3CCCO3)c2C)c1` (stereo not given), for which the IC50 is > 111 µM (inactive).

As to `CS(=O)(=O)c1ccc2nc(NC(=O)c3cccc(Cl)c3)sc2c1`, the IC50 is > 111 µM (inactive). As to `Cc1cccc(C(=O)Nc2nc3ccc(S(C)(=O)=O)cc3s2)c1`, the IC50 is > 111 µM (inactive). On to `Cc1cc(C(=O)CSc2nnnn2-c2cccc(F)c2)c(C)n1CC1CCCO1` (stereo not given), for which the IC50 was > 111 µM (inactive).

As to `Cc1ccccc1-n1nnnc1SCC(=O)c1cc(C)n(CC2CCCO2)c1C` (stereo not given), the IC50 is > 111 µM (inactive). Then `CS(=O)(=O)c1ccc2nc(NC(=O)c3ccccc3F)sc2c1`, with > 111 µM (inactive).

For the molecule `CS(=O)(=O)c1ccc2nc(NC(=O)c3cccc(F)c3)sc2c1`, the IC50 is > 111 µM (inactive).

With `COc1ccc(C(=O)Nc2nc3ccc(S(C)(=O)=O)cc3s2)cc1`, the IC50 is > 111 µM (inactive). With `Cc1cc(C(=O)CSc2nnnn2-c2ccccc2)c(C)n1C` the figure was > 111 µM (inactive); with `COc1ccccc1C(=O)Nc1nc2ccc(S(C)(=O)=O)cc2s1`, > 111 µM (inactive). With `COc1ccc(-n2nnnc2SCC(=O)c2cc(C)n(CC3CCCO3)c2C)cc1` (stereo not given), the IC50 is > 111 µM (inactive). With `Cc1cc(C(=O)CSc2nnnn2-c2ccccc2)c(C)n1Cc1cccs1`, the IC50 is > 111 µM (inactive). Consider `O=C(CSc1nnnn1-c1ccccc1)c1ccn(CC2CCCO2)c1` (stereo not given), for which the IC50 is > 111 µM (inactive). As for `Cc1cc(C(=O)CSc2nnnn2C2CC2)c(C)n1CC1CCCO1` (stereo not given), the IC50 is > 111 µM (inactive). For the molecule `Cc1ccccc1C(=O)Nc1nc2ccc(S(C)(=O)=O)cc2s1`, the IC50 is > 111 µM (inactive). Consider `Cc1cc(C(=O)CSc2nnnn2C)c(C)n1CC1CCCO1` (stereo not given), for which the IC50 was > 111 µM (inactive).

Regarding `CS(=O)(=O)c1ccc2nc(NC(=O)c3ccccc3Cl)sc2c1`, the IC50 is > 111 µM (inactive). As to `Cc1ccc(C(=O)Nc2nc3cc(Br)ccc3s2)cc1C`, the IC50 was > 111 µM (inactive). For `Cc1ccc(C(=O)Nc2nc3ccc(S(C)(=O)=O)cc3s2)cc1`, the IC50 was > 111 µM (inactive). Regarding `COc1ccc2sc(NC(=O)c3ccc(C)c(C)c3)nc2c1`, the IC50 was > 111 µM (inactive). Turning to `COc1cccc(C(=O)Nc2nc3ccc(S(C)(=O)=O)cc3s2)c1`, the IC50 was > 111 µM (inactive). On to `COc1cccc2sc(NC(=O)c3ccc(C)c(C)c3)nc12`, for which the IC50 was > 111 µM (inactive).

For `CS(=O)(=O)c1ccc2nc(NC(=O)c3ccc(Cl)cc3)sc2c1`, the IC50 was > 111 µM (inactive).

Turning to `Cc1ccc(-n2nnnc2SCC(=O)c2cc(C)n(CC3CCCO3)c2C)cc1` (stereo not given), the IC50 is > 111 µM (inactive). In the case of `Cc1ccc(C(=O)Nc2nc3ccc(Br)cc3s2)cc1C`, the IC50 is > 111 µM (inactive). `COCCn1c(C)cc(C(=O)CSc2nnnn2-c2ccccc2)c1C`: the IC50 is > 111 µM (inactive). For `Cc1cc(C(=O)CSc2nnnn2-c2ccc(Cl)cc2)c(C)n1CC1CCCO1` (stereo not given), the IC50 is > 111 µM (inactive).

As a reminder, the IC50 is the midpoint of a concentration-inhibition curve.

For the origin of these results see PubChem BioAssay AID493077 (The Scripps Research Institute Molecular Screening Center, 2011).
